{"source": "patent US6110949A", "about": "“N-(substituted glycyl)-4-cyanothiazolidines, pharmaceutical compositions containing them and their use in inhibiting dipeptidyl peptidase-IV” (Novartis AG, priority 1999, dated 2000)", "format_in_all_cases": "biochemical", "key": {"[1]": {"molecular_target": "T1, DPP-IV (Caco-2 cell extract) (Homo sapiens, UniProt P27487)", "T1 construct": "adding 20 μg solubilized Caco-2 protein; endogenous in cells; host or cells: Caco-2 (ATCC HTB 37), differentiated to induce DPP-IV expression; nonidet-P40 extract", "T1 sequence (P27487 whole entry)": "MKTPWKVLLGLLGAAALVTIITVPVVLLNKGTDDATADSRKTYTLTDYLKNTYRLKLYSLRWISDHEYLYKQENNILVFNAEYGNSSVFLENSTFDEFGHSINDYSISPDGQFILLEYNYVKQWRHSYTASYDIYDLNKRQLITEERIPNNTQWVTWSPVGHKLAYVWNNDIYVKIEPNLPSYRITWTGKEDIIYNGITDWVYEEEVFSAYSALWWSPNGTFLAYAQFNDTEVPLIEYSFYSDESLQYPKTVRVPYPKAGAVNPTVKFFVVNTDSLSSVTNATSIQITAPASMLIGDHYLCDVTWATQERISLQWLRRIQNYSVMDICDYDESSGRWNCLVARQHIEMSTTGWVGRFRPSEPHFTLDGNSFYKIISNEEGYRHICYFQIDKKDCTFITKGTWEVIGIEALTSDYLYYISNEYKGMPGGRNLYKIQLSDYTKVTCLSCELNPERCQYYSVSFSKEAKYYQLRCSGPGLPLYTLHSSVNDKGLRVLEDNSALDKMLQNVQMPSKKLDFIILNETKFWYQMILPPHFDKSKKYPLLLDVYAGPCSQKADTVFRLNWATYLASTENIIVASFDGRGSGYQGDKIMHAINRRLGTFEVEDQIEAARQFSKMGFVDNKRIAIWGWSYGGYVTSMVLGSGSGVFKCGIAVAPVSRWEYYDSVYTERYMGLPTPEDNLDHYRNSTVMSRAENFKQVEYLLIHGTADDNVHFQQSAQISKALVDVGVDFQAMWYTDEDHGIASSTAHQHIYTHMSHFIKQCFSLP", "test": "Caco-2 DPP-IV Assay (inhibition of DPP-IV activity from human colonic carcinoma cell extracts)", "conditions": "substrate H-Alanine-Proline-pNA, pH 7.4, room temperature, 10 minutes", "source_text": "As indicated above, all of the compounds of formula I, and their corresponding pharmaceutically acceptable acid addition salts, are useful in inhibiting DPP-IV. […] The human colonic carcinoma cell line Caco-2 was obtained from the American Type Culture Collection (ATCC HTB 37). Differentiation of the cells to induce DPP-IV expression was accomplished as described by Reisher, et al. in an article entitled \"Increased expression of . . . intestinal cell line Caco-2\" in Proc. Natl. Acad. Sci., Vol. 90, pgs. 5757-5761 (1993). Cell extract is prepared from cells solubilized in 10 mM Tris-HCl, 0.15 M NaCl, 0.04 t.i.u. aprotinin, 0.5% nonidet-P40, pH 8.0, which is centrifuged at 35,000 g for 30 min. at 4° C. to remove cell debris. The assay is conducted by adding 20 μg solubilized Caco-2 protein, diluted to a final volume of 125 μl in assay buffer (25 mM Tris-HCl pH 7.4, 140 mM NaCl, 10 mM KCl, 1% bovine serum albumin) to microtiter plate wells. The reaction is initiated by adding 25 μl of 1 mM substrate (H-Alanine-Proline-pNA; pNA is p-nitroaniline). The reaction is run at room temperature for 10 minutes after which time a 19 μl volume of 25% glacial acetic acid is added to stop the reaction. Test compounds are typically added as 30 μl additions and the assay buffer volume is reduced to 95 μl. A standard curve of free p-nitroaniline is generated using 0-500 μM solutions of free pNA in assay buffer. The curve generated is linear and is used for interpolation of substrate consumption (catalytic activity in nmoles substrate cleaved /min). The endpoint is determined by measuring absorbance at 405 nm in a Molecular Devices UV Max microtiter plate reader. The potency of the test compounds as DPP-IV inhibitors, expressed as IC50, is calculated from 8-point, dose-response curves using a 4-parameter logistic function."}, "rat plasma DPP-IV": {"molecular_target": "T2, rat plasma DPP-IV (Rattus norvegicus, UniProt P14740)", "T2 construct": "from tissue; host or cells: rat plasma", "T2 sequence (P14740 37-767 limits assumed)": "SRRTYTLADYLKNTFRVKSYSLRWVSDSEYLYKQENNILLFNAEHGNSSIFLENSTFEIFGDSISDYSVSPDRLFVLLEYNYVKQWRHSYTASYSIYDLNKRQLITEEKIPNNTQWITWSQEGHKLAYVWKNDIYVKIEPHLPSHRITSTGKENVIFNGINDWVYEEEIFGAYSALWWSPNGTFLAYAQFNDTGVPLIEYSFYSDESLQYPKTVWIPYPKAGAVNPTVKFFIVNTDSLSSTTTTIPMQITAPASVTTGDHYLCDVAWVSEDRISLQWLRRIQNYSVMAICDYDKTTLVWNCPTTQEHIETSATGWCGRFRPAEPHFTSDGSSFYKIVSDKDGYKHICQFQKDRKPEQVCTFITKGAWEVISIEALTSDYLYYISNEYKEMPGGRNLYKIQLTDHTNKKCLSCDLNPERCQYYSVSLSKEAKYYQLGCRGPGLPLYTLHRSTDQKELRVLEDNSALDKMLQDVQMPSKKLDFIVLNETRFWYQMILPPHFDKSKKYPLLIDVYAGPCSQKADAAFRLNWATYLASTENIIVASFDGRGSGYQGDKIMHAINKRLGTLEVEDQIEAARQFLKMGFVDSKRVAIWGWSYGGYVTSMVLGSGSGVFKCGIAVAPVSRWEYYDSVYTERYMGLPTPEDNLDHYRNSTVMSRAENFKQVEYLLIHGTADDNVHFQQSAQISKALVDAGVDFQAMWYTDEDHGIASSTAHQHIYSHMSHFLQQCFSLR", "test": "Inhibition of DPP-IV activity in rat plasma", "conditions": "substrate H-Glycine-Proline-AMC, pH 7.8, room temperature, 20 min", "description": "(§1) 192-197 (1992). Briefly, five μl of plasma are added to 96-well flat-bottom mictotiter plates (Falcon), followed by the addition of 5 μl of 80 mM MgCI2 in incubation buffer (25 mM HEPES, 140 mM NaCl, 1% RIA-grade BSA, pH 7.8). After a 5 min. incubation at room temperature, the reaction is initiated by the addition of 10 μl of incubation buffer containing 0.1 mM substrate (H-Glycine-Proline-AMC; AMC is 7-amino-4-methylcoumarin). The plates are covered with aluminum foil (or kept in the dark) and incubated at room temperature for 20 min. After the 20 min. reaction, fluorescence is measured using a CytoFluor 2350 fluorimeter (Excitation 380 nm Emission 460 nm; sensitivity setting 4). Test compounds are typically added as 2 μl additions and the assay buffer volume is reduced to 13 μl. A fluorescence-concentration curve of free AMC is generated using 0-50 μM solutions of AMC in assay buffer. The curve generated is linear and is used for interpolation of substrate consumption (catalytic activity in nmoles substrate cleaved/min). As with the previous assay, the potency of the test compounds as DPP-IV inhibitors, expressed as IC50, is calculated from 8-point, dose-response curves using a 4 parameter logistic function."}, "human plasma DPP-IV": {"molecular_target": "T3, human plasma DPP-IV (Homo sapiens, UniProt P27487)", "T3 construct": "from tissue; host or cells: human plasma", "T3 sequence (P27487 39-766 limits assumed)": "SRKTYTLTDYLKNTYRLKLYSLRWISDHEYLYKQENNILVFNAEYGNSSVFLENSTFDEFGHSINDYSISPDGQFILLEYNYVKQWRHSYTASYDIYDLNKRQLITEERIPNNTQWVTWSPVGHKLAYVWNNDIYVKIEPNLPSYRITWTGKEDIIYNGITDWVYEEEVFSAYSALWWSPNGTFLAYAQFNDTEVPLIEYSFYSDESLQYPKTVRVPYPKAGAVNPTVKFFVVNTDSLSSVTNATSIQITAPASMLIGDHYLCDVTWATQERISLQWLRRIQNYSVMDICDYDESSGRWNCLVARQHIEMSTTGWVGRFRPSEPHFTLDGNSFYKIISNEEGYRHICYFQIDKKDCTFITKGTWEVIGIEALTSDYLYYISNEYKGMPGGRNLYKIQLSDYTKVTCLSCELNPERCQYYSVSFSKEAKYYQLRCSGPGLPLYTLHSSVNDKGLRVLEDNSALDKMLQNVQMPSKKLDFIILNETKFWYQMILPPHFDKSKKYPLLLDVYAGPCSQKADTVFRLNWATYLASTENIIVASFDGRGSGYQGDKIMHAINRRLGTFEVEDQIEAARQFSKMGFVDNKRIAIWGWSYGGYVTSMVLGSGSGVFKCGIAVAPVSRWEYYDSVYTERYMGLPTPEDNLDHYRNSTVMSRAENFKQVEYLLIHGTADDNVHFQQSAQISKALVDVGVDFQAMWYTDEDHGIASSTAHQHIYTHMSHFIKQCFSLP", "test": "Inhibition of DPP-IV activity in human plasma", "conditions": "substrate H-Glycine-Proline-AMC, pH 7.8, room temperature, 20 min", "description": "as §1"}}, "note": "pIC50: −log10 of the molar value. Counter-ions that a name gives are not always drawn.", "data": [{"compound": "CC(C)OCCCNCC(=O)N1CSC[C@H]1C#N", "note": "[Ex. 2, 3-[(3-isopropoxypropyl)amino]acetyl-4-cyano-(R)-thiazolidine monohydrochloride]", "values": [{"measurement": "pIC50", "setting": "[1]", "result": 8.15}, {"measurement": "pIC50", "setting": "rat plasma DPP-IV", "result": 9.00}, {"measurement": "pIC50", "setting": "human plasma DPP-IV", "result": 8.30}]}, {"compound": "N#C[C@@H]1CSCN1C(=O)CNC1CCCCC1", "note": "[Ex. 1, 3-[(cyclohexyl)amino]acetyl-4-cyano-(R)-thiazolidine monohydrochloride]", "values": [{"measurement": "pIC50", "setting": "[1]", "result": 8.15}, {"measurement": "pIC50", "setting": "rat plasma DPP-IV", "result": 8.00}, {"measurement": "pIC50", "setting": "human plasma DPP-IV", "result": 8.00}]}, {"compound": "CC(C)NCC(=O)N1CSC[C@H]1C#N", "note": "[Ex. 3, 3-[(isopropyl)amino]acetyl-4-cyano-(R)-thiazolidine monohydrochloride]", "values": [{"measurement": "pIC50", "setting": "[1]", "result": 8.22}, {"measurement": "pIC50", "setting": "rat plasma DPP-IV", "result": 8.52}, {"measurement": "pIC50", "setting": "human plasma DPP-IV", "result": 8.52}]}]}
